Values joined by “and” are separate entries in the source; they are usually repeats but may differ in a detail not shown here. Equal entries are not always repeated. Toxic doses and inconclusive results are not listed.

The assay has as its system BDF1 mice, P388 leukemia ip, median survival T/C. Briefly: NCI In Vivo Anticancer Drug Screen. Data for tumor model P388 Leukemia (intraperitoneal) in B6D2F1 (BDF1) mice. To be noted: endpoint: median survival time, higher = longer survival. The method, boiled down: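 In tumour-bearing mice, survival after compound treatment is set against the vehicle group and given as a quotient.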

Setting [1] is: dose: 50.0 mg/kg/injection, schedule: Q01DX009 (ip), vehicle: saline with Tween-80.
Setting [2] is: dose: 100.0 mg/kg/injection, schedule: Q01DX009 (ip), vehicle: saline with Tween-80.
The mark [3] stands for this setting: dose: 200.0 mg/kg/injection, schedule: Q01DX009 (ip), vehicle: saline with Tween-80.
Setting [4] is: dose: 12.5 mg/kg/injection, schedule: Q01DX009 (ip), vehicle: saline with Tween-80.
[5] abbreviates: dose: 50.0 mg/kg/injection, schedule: Q01DX009 (ip), vehicle: saline.
Setting [6] is: dose: 100.0 mg/kg/injection, schedule: Q01DX009 (ip), vehicle: saline.
Where [7] appears, read: dose: 200.0 mg/kg/injection, schedule: Q01DX009 (ip), vehicle: saline.
Where [8] appears, read: dose: 100.0 mg/kg/injection, schedule: Q01DX001 (ip), vehicle: Klucel (hydroxypropylcellulose) (HPC).
Setting [9] is: dose: 200.0 mg/kg/injection, schedule: Q01DX001 (ip), vehicle: Klucel (hydroxypropylcellulose) (HPC).
Where [10] appears, read: dose: 100.0 mg/kg/injection, schedule: Q04DX003 (ip), vehicle: saline.
Where [11] appears, read: dose: 200.0 mg/kg/injection, schedule: Q04DX003 (ip), vehicle: saline.
The mark [12] stands for this setting: dose: 400.0 mg/kg/injection, schedule: Q04DX003 (ip), vehicle: saline.
[13] abbreviates: dose: 50.0 mg/kg/injection, schedule: Q01DX005 (ip), vehicle: saline with Tween-80.
Where [14] appears, read: dose: 100.0 mg/kg/injection, schedule: Q04DX003 (ip), vehicle: saline with Tween-80.

`CC(=O)CC1c2c(ccc3c2OCO3)-c2ccc3cc4c(cc3c2N1C)OCO4` (stereo not drawn): the T/C is, setting by setting: (dose: 5.0 mg/kg/injection, schedule: Q01DX009 (ip), vehicle: Klucel (hydroxypropylcellulose) (HPC)) 95 % of control; (dose: 10.0 mg/kg/injection, schedule: Q01DX009 (ip), vehicle: Klucel (hydroxypropylcellulose) (HPC)) 110 % of control; (dose: 13.0 mg/kg/injection, schedule: Q01DX010 (ip), vehicle: saline) 100 % of control; (dose: 20.0 mg/kg/injection, schedule: Q01DX009 (ip), vehicle: Klucel (hydroxypropylcellulose) (HPC)) 120 % of control; (dose: 20.0 mg/kg/injection, schedule: Q01DX010 (ip), vehicle: saline) 105 % of control; (dose: 30.0 mg/kg/injection, schedule: Q01DX010 (ip), vehicle: saline) 110 % of control. Where the note is “dose: 40.0 mg/kg/injection, schedule: Q01DX009 (ip), vehicle: Klucel (hydroxypropylcellulose) (HPC)”, the T/C was 115 % of control.
As for `CN(C)C(=S)NCc1ccccc1`, the T/C was 109 % of control under setting [1], 100 % of control under setting [2] and 100 % of control under setting [3].
As to `O=C1C(Br)=C(Br)C(=O)C1(Br)Br`, the T/C runs as follows: (dose: 8.25 mg/kg/injection, schedule: Q01DX009 (ip), vehicle: saline with Tween-80) 100 % of control; under setting [4], 109 % of control; (dose: 18.75 mg/kg/injection, schedule: Q01DX009 (ip), vehicle: saline with Tween-80) 113 % of control.
For the compound `CO[C@H]1/C=C/O[C@@]2(C)Oc3c(C)c(O)c4c(O)c(c(/C=N/N5CCNCC5)c(O)c4c3C2=O)NC(=O)/C(C)=C\C=C\[C@H](C)[C@H](O)[C@@H](C)[C@@H](O)[C@@H](C)C(OC(C)=O)[C@@H]1C` (stereo partly drawn), the T/C is, setting by setting: under setting [5], 114 % of control; under setting [6], 114 % of control; under setting [7], 114 % of control.
Consider `NC/C(=N\O)c1ccc(C(F)(F)F)cc1`, for which the T/C is 105 % of control (dose: 50.0 mg/kg/injection, schedule: Q01DX001 (ip), vehicle: Klucel (hydroxypropylcellulose) (HPC)); 114 % of control under setting [8]; 105 % of control under setting [9].
In the case of `COC(=O)C1(C)CCCC2(C)C1CCC13C=C(C(C)C)C(CC1C(=O)O)CC23` (stereo not drawn), the T/C runs as follows: under setting [1], 95 % of control; under setting [2], 91 % of control; under setting [3], 95 % of control.
In the case of `O=S(O)OS(=O)O`, the T/C reads like this: (dose: 90.0 mg/kg/injection, schedule: Q01DX009 (ip), vehicle: saline) 105 % of control; under setting [6], 100 % of control; under setting [10], 96 % of control; (dose: 133.0 mg/kg/injection, schedule: Q01DX009 (ip), vehicle: saline) 95 % of control and 100 % of control; under setting [7], 100 % of control and 116 % of control; under setting [11], 92 % of control. Further, the T/C was 104 % of control (dose: 400.0 mg/kg/injection, schedule: Q01DX009 (ip), vehicle: saline) and 96 % of control under setting [12].
Take `O=C1Oc2ccccc2C(=O)/C1=C1/C=C(c2ccccc2)SS1`: the T/C under setting [1] was 90 % of control, the T/C under setting [2] is 88 % of control and the T/C under setting [3] was 90 % of control.
Consider `CCOC(=O)CCN(CCN(C)C)c1cc(O)c2c(c1O)C(=O)c1ccccc1C2=O`, for which the T/C under setting [13] is 123 % of control.
With `CC(=O)CC(=O)NCCNCCNC(=O)CC(C)=O`, the T/C is 100 % of control under setting [10], 114 % of control under setting [11] and 100 % of control under setting [12].
Regarding `CSc1nc(Cl)c(Cl)c(C(F)(F)F)n1`, the T/C is, setting by setting: (dose: 6.25 mg/kg/injection, schedule: Q01DX005 (ip), vehicle: saline) 110 % of control; (dose: 12.5 mg/kg/injection, schedule: Q01DX005 (ip), vehicle: saline) 109 % of control; (dose: 25.0 mg/kg/injection, schedule: Q01DX005 (ip), vehicle: saline) 115 % of control.
`CCCCCCCCCCCCOc1ccc(C=O)cc1OC`: the T/C is, setting by setting: under setting [8], 100 % of control; under setting [9], 90 % of control; (dose: 400.0 mg/kg/injection, schedule: Q01DX001 (ip), vehicle: Klucel (hydroxypropylcellulose) (HPC)) 100 % of control.
On to `CCP(=Nc1cc(C(c2ccccc2)(c2ccccc2)c2ccccc2)cc(C(C)(C)C)c1O)(c1ccccc1)c1ccccc1`, for which the T/C was 107 % of control under setting [1], 116 % of control under setting [2] and 89 % of control under setting [3].
Consider `CC/C=N/NC(N)=S`, for which the T/C was 94 % of control (dose: 3.13 mg/kg/injection, schedule: Q01DX009 (ip), vehicle: saline with Tween-80); 94 % of control (dose: 6.25 mg/kg/injection, schedule: Q01DX009 (ip), vehicle: saline with Tween-80); 94 % of control under setting [4].
Consider `NNC(=O)C(=O)NCc1ccco1`, for which the T/C under setting [1] is 98 % of control.
Consider `Cc1ccc(NS(=O)(=O)c2ccc([N+](=O)[O-])cc2)c(C)c1`, for which the T/C runs as follows: under setting [14], 100 % of control; (dose: 200.0 mg/kg/injection, schedule: Q04DX003 (ip), vehicle: saline with Tween-80) 104 % of control; (dose: 400.0 mg/kg/injection, schedule: Q04DX003 (ip), vehicle: saline with Tween-80) 104 % of control.
For `C(COCC1CO1)OCC1CO1` (stereo not drawn), the T/C is 154 % of control and 165 % of control (dose: 25.0 mg/kg/injection, schedule: Q01DX009 (ip), vehicle: saline); 108 % of control (dose: 25.0 mg/kg/injection, schedule: Q04DX003 (ip), vehicle: saline); 168 % of control and 185 % of control under setting [5]; 160 % of control (dose: 50.0 mg/kg/injection, schedule: Q04DX003 (ip), vehicle: saline with Tween-80); 209 % of control under setting [6]; 165 % of control under setting [14]. The T/C under setting [10] is 154 % of control.
Turning to `[Cl][Pb]([Cl])([c]1ccccc1)[c]1ccccc1`, the T/C is 91 % of control (dose: 25.0 mg/kg/injection, schedule: Q01DX009 (ip), vehicle: saline with Tween-80); 87 % of control under setting [1]; 97 % of control under setting [2].
Turning to `Fc1ccc(NC2=NCCN=C(Nc3ccc(F)cc3)SS2)cc1`, the T/C was 96 % of control under setting [1], 87 % of control under setting [2] and 102 % of control under setting [3].
In the case of `CC12CCCCC1=Nc1ccc3ccccc3c12` (stereo not drawn), the T/C (dose: 100.0 mg/kg/injection, schedule: Q01DX009 (ip), vehicle: saline + alcohol) was 93 % of control.
As for `CCC(C)C(O)C(C(=O)O)C1CCCCC1` (stereo not drawn), the T/C by setting is: under setting [13], 100 % of control; (dose: 100.0 mg/kg/injection, schedule: Q01DX005 (ip), vehicle: saline with Tween-80) 95 % of control; (dose: 200.0 mg/kg/injection, schedule: Q01DX005 (ip), vehicle: saline with Tween-80) 86 % of control.
For `Cc1cc2nccc(/C=C/c3ccc(N(C)C)cc3)c2cc1C`, the T/C reads like this: under setting [1], 112 % of control; under setting [2], 120 % of control; under setting [3], 98 % of control.
For `CCCCCCCC(=O)[O][Hg][CH2]C1COC([CH2][Hg][O]C(=O)CCCCCCC)CO1` (stereo not drawn), the T/C was 110 % of control (dose: 12.5 mg/kg/injection, schedule: Q01DX009 (ip), vehicle: saline sonified) and 116 % of control (dose: 50.0 mg/kg/injection, schedule: Q04DX003 (ip), vehicle: saline sonified).
As for `COC1=CC(=O)C=C(OC)C1=O`, the T/C is, setting by setting: (dose: 2.0 mg/kg/injection, schedule: Q01DX010 (ip), vehicle: saline) 105 % of control; (dose: 4.0 mg/kg/injection, schedule: Q01DX010 (ip), vehicle: saline) 100 % of control; (dose: 8.0 mg/kg/injection, schedule: Q01DX010 (ip), vehicle: saline) 105 % of control.
Consider `CC1(C)OB(C(B2OC(C)(C)C(C)(C)O2)=C(CCl)CCl)OC1(C)C`, for which the T/C reads like this: (dose: 25.0 mg/kg/injection, schedule: Q01DX001 (ip), vehicle: saline sonified) 86 % of control; (dose: 50.0 mg/kg/injection, schedule: Q01DX001 (ip), vehicle: saline sonified) 95 % of control; (dose: 100.0 mg/kg/injection, schedule: Q01DX001 (ip), vehicle: saline sonified) 95 % of control.
With `O=C(CC(c1ccccc1)C(C(=O)O)c1ccccc1)c1ccccc1` (stereo not drawn), the T/C (dose: 50.0 mg/kg/injection, schedule: Q01DX009 (ip), vehicle: Klucel (hydroxypropylcellulose) (HPC)) was 101 % of control and the T/C (dose: 100.0 mg/kg/injection, schedule: Q01DX009 (ip), vehicle: Klucel (hydroxypropylcellulose) (HPC)) is 92 % of control.

Source of the values: PubChem BioAssay AID328 (DTP/NCI, 2004).
